Reference: patent US7241738B2, “Peptides effective in the treatment of tumors and other conditions requiring the removal or destruction of cells” (Nymox Pharmaceutical Corporation, priority 2001, dated 2007)
“And” between values parts separate entries of the source, which are not always exact repeats. Equal entries are not always repeated. Peptide text beside a SMILES is read from it.

Legend:
[1] = system: muscle tissue, subcutaneous connective tissue, and dermis at injection sites; test: Injection into skin, subcutaneous tissue and extremity skeletal muscle of normal rats; histopathology at 24 hours; format: in vivo, rat
From the text: The individual foci of infiltration were excised, fixed in 10% formalin, embedded in paraffin, and stained and examined by standard histopathological methods.
The controls received saline alone.
Tissues were excised, fixed in 10% formalin, embedded in paraffin, and stained and examined by standard histopathological methods.

[2] = system: normal rodent muscle tissue, subcutaneous connective tissue, dermis; human and non-human origin tumors; conditions: dermis and a variety of human and non-human origin tumors in rodent models; cited from earlier work
rat prostate = test: Intraprostatic infusion in rats; prostate volume and histology at 72 hours; format: in vivo, rat (Sprague-Dawley); conditions: for prostate histology (H & E): intraprostatic infusion, rats sacrificed after 72 hours
Experimental: (§1) Male Sprague-Dawley rats (300 gram weight range) were anesthetized with ether and given NTP peptide #6 by intraprostatic infusion after open surgical visualization of the prostate. The injections consisted of 300 μl of NTP peptide #6, 1 mg/mL in PBS pH 7.4. (1.0 mg/kg) (n=8), control injections of PBS alone (n=6), and controls with no injection (n=2). Rats were painlessly sacrificed after 72 hours. Prostate glands were dissected, fixed in 10% buffered formalin for 24 hours, embedded in paraffin, sectioned, and stained with H & E. For each animal the entire prostate gland was embedded and sectioned. All stained sections were examined histologically and measured. For each prostate at least 4 histological sections were examined, and for each histological section two cross-sectional diameters (D) at 90° from each other were measured (total of ≧8 measurements per prostate). The mean diameter from these measurements for each prostate was used to estimate volume according to
as §1, with “Related Peptide #2” for “NTP peptide #6”, “Related Peptide #2,” for “NTP peptide #6,”, “>8” for “≧8”
The controls were the same as Example 1.
Normal rats were injected in the prostate as in the above Examples 1 and 4 with Related Peptide #3. Rats were painlessly sacrificed after 72 hours and their prostate glands were examined as in the above Examples 1 and 4.

CC[C@H](C)[C@H](NC(=O)[C@H](CCC(=O)O)NC(=O)[C@H](CC(C)C)NC(=O)[C@H](CCCCN)NC(=O)[C@@H](NC(=O)[C@H](CCCNC(=N)N)NC(=O)[C@H](CO)NC(=O)[C@@H](N)CC(C)C)[C@@H](C)CC)C(=O)N[C@@H](CCCCN)C(=O)O [NTP peptide #7, LSRIKLEIK] (H-LSRIKLEIK-OH; N-terminus and C-terminus assumed)
spread of necrosis beyond the site of injection [1]: did not appear to spread far beyond the site of injection

AD7c-NTP: ˜41 kD neural thread protein, membrane associated phosphoprotein, SEQ ID NO. 1
causing cell death in vivo [2]: effective agent for causing cell death

GDHGRPNLSRLKLAIKYEVKKM [Related Peptide #1]
histopathology of tissue at injection sites ([1]; at 0.1-1 mg/mL in saline): cell death and necrosis of tissue at the injection sites

GLLFPVFSVCYLIAPKSPLGL [Related Peptide #3]
prostate histology (H & E) (rat prostate): Significant cell loss and atrophy of prostate

IDQQVLSRIKLEIKRCL [NTP peptide #6]
prostate histology (H & E) (rat prostate): extensive loss of glandular epithelium, flattening and atrophy | reduction in prostate volume compared to controls (rat prostate; intraprostatic open infusion 1.0 mg/kg (300 μl, 1 mg/mL in PBS pH 7.4), 72 hours, vs untreated or PBS treated controls, estimated from mean diameters): 45% and > 40%

QQSIAVKFLAVFGVSI [Related Peptide #2]
prostate histology (H & E) (rat prostate): significant cell loss and atrophy in the prostate
